From article PMC9556331, “Structural basis for directional chitin biosynthesis” (Nature, 2022)

Assays:
[1] = target: T1, chitin synthase PsChs1 (Phytophthora sojae, UniProt G4Z2L3); assay: cryo-EM structure ([…] Å); assay type: binding
T1 construct: gene CHS1; full-length PsChs1 with C-terminal tandem twin Strep tag and Flag tag; residues 40-860 built, 743-758 disordered; homodimer

[2] = target: T1, chitin synthase PsChs1; assay: cryo-EM structure ([…] Å) plus enzyme inhibition kinetics (competitive Ki); assay type: biochemical
[3] = target: the molecule itself; assay: AUC; purified recombinant PsChs1 in the presence of detergent; molar mass of the main peak compared with the 107 kDa monomer
[4] = target: the molecule itself; assay: cryo-EM structure; purified protein at about 5 mg/ml in digitonin buffer; apo or with UDP-GlcNAc, UDP/(GlcNAc)3, UDP or NikZ; C2 symmetry imposed

O=c1ccn([C@@H]2O[C@H](COP(=O)(O)OP(=O)(O)O)[C@@H](O)[C@H]2O)c(=O)[nH]1 [UDP]
cryo-EM structure (3.1 Å) [1]: The UDP-bound dimeric PsChs1 structure represents its nascent chitin-released state

C[C@@H]([C@H](N)C(=O)N[C@H](C(=O)O)[C@H]1O[C@@H](n2ccc(=O)[nH]c2=O)[C@H](O)[C@@H]1O)[C@H](O)c1ccc(O)cn1 [NikZ, nikkomycin Z]
Ki [2]: 151 ± 4.8 µM

B1: Phytophthora sojae chitin synthase PsChs1 (enzyme)
chain: MSGAPPPSSGFAPRSYGQQPLSHAPRSSMMSVEYDGIPLPPPSIRSCGSQQYVTSYIPTGAAFPPSSVQDMISSMKSYASATDLVRTYSEIPSVEEALSTLDRAAAALNARRYRDALKLYLEGGYAMANVAERQANPKICNLLTSKGFETLNWCARLCDWIEGRIKEKHPRPGVHKVGIPVSNWDEDWVGPFMDEEEARRMWYTPVYCPHPIDFSNLGYRLRCVETGRRPRLMICITMYNEGPQQLKATLKKLANNLAYLKEQMPGDEKSLTGAFAGDDVWQNVLVCIVADGREQVHPKTLDYLEAIGLYDEDLLTINSAGIGAQCHLFEHTLQLSVNGKCLLPIQTVFALKENKASKLDSHHWYFNAFAEQIQPEYTAVMDVGTMLTKSALYHLLFAFERNHQIGGACGQLTVDNPFENLSNWVISAQHFEYKISNILDKSLESCFGFISVLPGAFSAYRYEAIRGAPLDAYFQTLNIELDVLGPFIGNMYLAEDRILSFEVVARKNCNWTMHYVKDAVARTDVPHDLVGLISQRKRWLNGAFFATLFSIWNWGRIYSESKHTFVRKMAFLVFYVYHLLYTAFGFFLPANLYLALFFIVFQGFQQNRLEFIDTSEYSQTVLDCAVYIYNFSYLFGLLMLIIIGLGNNPKHMKLTYYFVGAVFGLMMMLSSLVGAGIFFSTPATVHSIVVSILTVGVYFIASALHGEVHHIFMTFTHYTALIPSFVNIFTIYSFCNLQDLSWGTKGLHDDPLLAASLDETEKGDFKDVIAKRRALEELRREEKERVENRKKNFEAFRTNVLLTWAFSNLIFALFVVYFASSSTYMPVLYIFVASLNTCRLLGSIGHWVYIHTEGLRGRVIDKSECGNGTGRYPQNSYVQLEEHYAALAEDQRTYASGRTNASVRTVNDVSSAA
notes: also called native PsChs1; wild-type PsChs1
stoichiometry N [3]: 2

B2: PsChs1 E495A (used for the UDP-GlcNAc-bound structure) (enzyme)
chain: MSGAPPPSSGFAPRSYGQQPLSHAPRSSMMSVEYDGIPLPPPSIRSCGSQQYVTSYIPTGAAFPPSSVQDMISSMKSYASATDLVRTYSEIPSVEEALSTLDRAAAALNARRYRDALKLYLEGGYAMANVAERQANPKICNLLTSKGFETLNWCARLCDWIEGRIKEKHPRPGVHKVGIPVSNWDEDWVGPFMDEEEARRMWYTPVYCPHPIDFSNLGYRLRCVETGRRPRLMICITMYNEGPQQLKATLKKLANNLAYLKEQMPGDEKSLTGAFAGDDVWQNVLVCIVADGREQVHPKTLDYLEAIGLYDEDLLTINSAGIGAQCHLFEHTLQLSVNGKCLLPIQTVFALKENKASKLDSHHWYFNAFAEQIQPEYTAVMDVGTMLTKSALYHLLFAFERNHQIGGACGQLTVDNPFENLSNWVISAQHFEYKISNILDKSLESCFGFISVLPGAFSAYRYEAIRGAPLDAYFQTLNIELDVLGPFIGNMYLAADRILSFEVVARKNCNWTMHYVKDAVARTDVPHDLVGLISQRKRWLNGAFFATLFSIWNWGRIYSESKHTFVRKMAFLVFYVYHLLYTAFGFFLPANLYLALFFIVFQGFQQNRLEFIDTSEYSQTVLDCAVYIYNFSYLFGLLMLIIIGLGNNPKHMKLTYYFVGAVFGLMMMLSSLVGAGIFFSTPATVHSIVVSILTVGVYFIASALHGEVHHIFMTFTHYTALIPSFVNIFTIYSFCNLQDLSWGTKGLHDDPLLAASLDETEKGDFKDVIAKRRALEELRREEKERVENRKKNFEAFRTNVLLTWAFSNLIFALFVVYFASSSTYMPVLYIFVASLNTCRLLGSIGHWVYIHTEGLRGRVIDKSECGNGTGRYPQNSYVQLEEHYAALAEDQRTYASGRTNASVRTVNDVSSAA
notes: source: HEK293F, transiently transfected, purified as the native PsChs1 (Strep-TactinXT, anti-Flag M2 resin, SEC)
stoichiometry N [4]: 2
